Assay results reported in patent publication US11806361B2, “Treatments of non-alcoholic steatohepatitis (NASH)” (DEUTSCHES KREBSFORSCHUNGSZENTRUM STIFTUNG DES ÖFFENTLICHEN …, priority 2016, dated 2023).

Legend:
CD-HFD fed C57BL/6 mice = test: CD-HFD mouse model of NASH and NASH-triggered HCC; format: in vivo; conditions: for development of NASH: MRI analysis and histological analysis; for Histopathological signs of NASH (e.g. ballooned hepatocytes): H/E stains of liver; for Aberrant hepatic lipid metabolism and b-Oxidation: Real time PCR analysis for gene expression in the liver
Text: Indeed that approach enabled the inventors to study a chronic model of NASH in the context of metabolic syndrome, triggering subsequent HCC in C57BL/6 mice, in the absence of chemical carcinogens or genetic mutations predisposing to NASH or HCC development. CD-HFD fed mice display several long term pathologies observed in human patients: abdominal obesity, overweight, insulin resistance, liver damage, production of reactive oxygen species (ROS) fibrosis, hepatic mitochondrial damage, dyslipidemia and NASH. Moreover, HCC developed 12 months post CD-HFD start and resembled histologically, genetically and morphologically human HCC (FIG. 1). Cholesterol Diet—High Fat Diet (CD-HFD) in mice recapitulates human NASH and NASH triggered HCC pathology. (FIG. 1A) Weight development in male normal diet fed (ND) and CD-HFD fed C57BL/6 mice. (FIG. 1B) Intraperitoneal Glucose tolerance test performed with 6-month-old male ND and CD-HFD C57BL/6 mice. (FIG. 1C) Quantification of serum aminotransferase (ALT) levels in male C57BL/6 mice reflecting liver damage. (FIG. 1D) MRI analyses on livers of 6-month-old ND and CD-HFD C57BL/6 mice. T1 (fast low-angle shot [FLASH]) OUT phase: dark color indicative of steatosis. T2 TurboRare visualizes increase in subcutaneous and abdominal fat and hepatic lipid accumulation (bright regions) in CD-HFD mice. (FIG. 1E) Macroscopy and histopathology of livers from 12-month-old ND, HFD, or CD-HFD C57BL/6 mice, with arrowhead pointing towards HCC. Scale bar: 5 mm. T: Tumor. NT: Non-Tumor. ***P=0.001. (F) Representative H&E staining of 12-month-old CD-HFD C57BL/6 livers and human livers illustrating NASH. Accumulation of Mallory Denk bodies (red arrowhead), ballooned hepatocytes (brown arrowhead), and satellitosis (blue arrowhead) is similar to human NASH pathology (right image). Scale bar: 50 μm.
(§1) Aspirin/Clopidrogrel (Asp/Clop), a thrombocyte aggregation inhibitor, treatment reduces the capacity of platelets aggregate and prevents NASH and aberrant hepatic lipid metabolism (FIG. 5). (FIG. 5A) Asprin/Clopidrogrel treatment reduces the number of platelets in the liver (White bars: ND; Black bars: CD-HFD; Green bars: CD-HFD treated with Asp/Clop). […] (FIG. 5E) Liver to body weight ratio is rescued upon Asp/Clop treatment at 12 months of age. (FIG. 5F) Liver damage as measured by ALT levels in serum is prevented in Asp/Clop treated mice. (FIG. 5G) Triglycerides are reduced in serum of Asp/Clop treated mice at 12 months of age. (FIG. 5H) Serum cholesterol is reduced in Asp/Clop treated mice at 6 and 12 months, (FIG. 5I) Aberrant hepatic lipid metabolism and b-Oxidation is rescued in Asp/Clop treated mice—as analyzed by Real time PCR analysis for gene expression in the liver. Stars indicate significance. […] (FIG. 5J) Lipid deposition in the liver indicated by a dark staining in the T1 (FLASH) OUT phase is not detected—as in the CD-HFD. Still at the same time abdominal and subcutaneous fat are visible in Asp/Clop treated mice. (FIG. 5K) Histopathological signs of NASH (e.g. ballooned hepatocytes—see also stars) are absent in Asp/Clop treated mice.

platelets = test: ex vivo activation / aggregation assay on platelets taken from peripheral blood; format: cell-based; conditions: platelets taken from peripheral blood of treated CD-HFD mice
Text: By using different dilution curves of CRP or Thr a reproducible and consistent analysis of the platelet-response rate was visible.
as §1

Row | Structure (SMILES) | Liver damage as measured by ALT levels in serum (CD-HFD fed C57BL/6 mice; CD-HFD fed mice) | development of obesity (CD-HFD fed C57BL/6 mice; CD-HFD fed mice) | insulin resistance (intraperitoneal glucose tolerance test) (CD-HFD fed C57BL/6 mice; CD-HFD fed mice) | development of NASH (CD-HFD fed C57BL/6 mice; CD-HFD fed mice) | Histopathological signs of NASH (e.g. ballooned hepatocytes) (CD-HFD fed C57BL/6 mice) | Lipid deposition in the liver (dark staining in the T1 (FLASH) OUT phase) (CD-HFD fed C57BL/6 mice; MRI) | abdominal and subcutaneous fat (CD-HFD fed C57BL/6 mice; MRI) | Aberrant hepatic lipid metabolism and b-Oxidation (CD-HFD fed C57BL/6 mice) | Triglycerides in serum (CD-HFD fed C57BL/6 mice; at 6 or 12 months of age) | Liver to body weight ratio (CD-HFD fed C57BL/6 mice; at 12 months of age) | number of HCC (HCC incidence) (CD-HFD fed C57BL/6 mice; CD-HFD fed mice) | Serum cholesterol (CD-HFD fed C57BL/6 mice; at 6 and 12 months) | Triglycerides in serum (CD-HFD fed C57BL/6 mice; at 12 months of age) | Activation status of platelets (ex vivo assay) (platelets) | Aggregation capacity status of platelets (ex vivo aggregation assay) (platelets)
1 | CC1=C(CC(=O)O)c2cc(F)ccc2/C1=C\c1ccc([S+](C)[O-])cc1 (centres unmarked) [sulindac, Sulindac] | not prevented | do develop obesity | insulin resistant as CD-HFD fed mice | does not prevent the development of NASH | present | detected | visible | not rescued | not significantly reduced | not rescued | – | – | – | – | –
2 | CCCSc1nc(N[C@@H]2C[C@H]2c2ccc(F)c(F)c2)c2nnn([C@@H]3C[C@H](OCCO)[C@@H](O)[C@H]3O)c2n1 [ticagrelor, Ticagrelor] | significantly reduced | do develop obesity | – | blocks NASH and HCC development | not present | – | – | rescued | – | – | No HCC | significantly reduced | reduced by trend | significantly reduced | significantly reduced
